The target of one experiment is T1, human ACSS1 protein (Homo sapiens, UniProt Q9NUB1).
T1 construct: purchased MyBioSource
T1 sequence (Q9NUB1 38-689): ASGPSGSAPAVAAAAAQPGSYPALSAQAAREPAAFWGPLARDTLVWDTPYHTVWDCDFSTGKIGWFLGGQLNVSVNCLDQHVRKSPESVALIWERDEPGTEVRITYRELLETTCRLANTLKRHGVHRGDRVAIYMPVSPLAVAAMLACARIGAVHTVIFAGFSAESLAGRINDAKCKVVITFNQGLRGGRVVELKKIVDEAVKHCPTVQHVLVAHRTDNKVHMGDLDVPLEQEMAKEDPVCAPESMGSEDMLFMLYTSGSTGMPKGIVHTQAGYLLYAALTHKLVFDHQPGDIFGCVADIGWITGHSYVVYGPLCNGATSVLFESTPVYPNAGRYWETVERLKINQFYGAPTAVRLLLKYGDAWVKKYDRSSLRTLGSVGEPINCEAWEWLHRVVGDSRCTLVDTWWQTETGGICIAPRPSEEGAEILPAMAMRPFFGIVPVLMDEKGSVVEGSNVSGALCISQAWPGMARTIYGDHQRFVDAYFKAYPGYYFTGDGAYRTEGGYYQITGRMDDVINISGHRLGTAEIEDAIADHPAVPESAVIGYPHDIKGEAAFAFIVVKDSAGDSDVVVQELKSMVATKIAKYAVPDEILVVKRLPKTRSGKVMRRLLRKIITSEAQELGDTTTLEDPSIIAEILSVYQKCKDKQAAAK
The experiment is described as follows: ACSS1 cell-free activity assay (pyrophosphatase-coupled, Biomol green). The class given is biochemical. The following applies: 5 nM human ACSS1, 30 minutes at room temperature, absorbance at 620 nm; for IC50: read-out: ACSS1 Biochemical IC50. Put shortly: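 5 nM human ACSS1 incubated 30 min at RT with compound in pH 7.5 Hepes buffer with 15 μM CoA, 5 mM acetate, 300 μM ATP, 2 mM MgCl2 and pyrophosphatase. Released phosphate detected with Biomol Green (30 min), absorbance 620 nm. IC50 from constrained non-linear regression.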

Experiment [1] deals with T2, ACSS2 in MDA-MB-468 cells (Homo sapiens, UniProt Q9NR19).
T2 construct: endogenous in cells; host or cells: MDA-MB-468 cells, hypoxia (1% O2)
Put plainly: Cellular fatty-acid IC50: 13C-acetate incorporation into fatty acids (palmitate), LC-MS. The class given is cell-based. The following applies: hypoxic conditions (1% O2), 75% charcoal stripped serum, 5 hours, 13C-acetate into palmitate, read-out: Cellular Fatty-acid IC50 High Serum MDA468. The essentials:
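MDA-MB-468 cells under hypoxia (1% O2) treated 5 h with compound (0.000512-1000 nM) in medium with 75% charcoal-stripped serum and 0.5 mM 13C-acetate. 13C-palmitate quantified by LC-MS (negative ion, RSIM). IC50 from inhibition versus no-compound control, background-subtracted, constrained 0–100% nonlinear fit.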

Another experiment deals with T3, human ACSS2 protein (Homo sapiens, UniProt Q9NR19).
T3 construct: purchased OriGene Technologies, Inc
The experiment is described as follows: ACSS2 cell-free activity assay (pyrophosphatase-coupled, Biomol green). As to conditions: 10 nM human ACSS2, 90 minutes at 37 C, absorbance at 620 nm; read-out: ACSS2 Biochemical IC50; call rule not given here. The essentials: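 10 nM human ACSS2 incubated 90 min at 37 C with compound, 300 μM ATP, 10 μM CoA, 5 mM NaAc in pH 7.5 Hepes buffer with 0.5 U/ml pyrophosphatase. Released phosphate detected with Biomol Green at 620 nm; IC50 by non-linear regression constrained to 0% and 100%.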

The source of these data is US20230174507A1, “IMIDAZOLE 3-OXIDE DERIVATIVE BASED ACSS2 INHIBITORS AND METHODS OF USE THEREOF” (METABOMED LTD., priority 2020, published 2023).

T3 sequence (Q9NR19 whole entry): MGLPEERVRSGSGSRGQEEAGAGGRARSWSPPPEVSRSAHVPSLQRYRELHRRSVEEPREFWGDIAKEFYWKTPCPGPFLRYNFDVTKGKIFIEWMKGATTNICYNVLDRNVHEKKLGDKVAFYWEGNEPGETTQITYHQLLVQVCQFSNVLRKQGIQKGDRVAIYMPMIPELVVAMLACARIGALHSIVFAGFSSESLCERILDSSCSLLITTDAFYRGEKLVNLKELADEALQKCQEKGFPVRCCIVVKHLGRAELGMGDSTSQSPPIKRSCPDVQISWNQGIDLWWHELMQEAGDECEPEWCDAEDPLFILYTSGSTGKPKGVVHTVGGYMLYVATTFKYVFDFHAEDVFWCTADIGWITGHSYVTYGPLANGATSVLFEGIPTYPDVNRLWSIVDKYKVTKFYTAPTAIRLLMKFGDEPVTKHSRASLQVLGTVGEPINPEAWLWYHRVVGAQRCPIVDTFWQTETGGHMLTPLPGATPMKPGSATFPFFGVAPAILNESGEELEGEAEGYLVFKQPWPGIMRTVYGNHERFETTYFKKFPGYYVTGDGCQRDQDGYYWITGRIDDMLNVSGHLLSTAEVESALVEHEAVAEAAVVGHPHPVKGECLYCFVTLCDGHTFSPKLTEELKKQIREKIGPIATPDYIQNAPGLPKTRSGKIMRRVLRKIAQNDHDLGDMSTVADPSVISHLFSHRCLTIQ
T2 sequence (Q9NR19 whole entry): as above

For the compound `CCC(F)(F)c1cccc(NC(=O)c2c(C)[nH]c(-c3cccc(-c4c(C)cccc4C)n3)[n+]2[O-])c1` [Compound 111, 4-((3-(1,1-difluoropropyl)phenyl)carbamoyl)-2-(6-(2,6-dimethylphenyl)pyridin-2-yl)-5-methyl-1H-imidazole 3-oxide], the “ACSS1 Biochemical IC50 (nM)” value at human ACSS1 protein was “Inactive”. Besides, the half-maximal inhibitory concentration (IC50) in experiment [1] is greater than 50 nM; at human ACSS2 protein, less than 1 nM.

Turning to `CNC(=O)c1cccc(NC(=O)c2c(C)[nH]c(-c3cc(NC)cc(-c4c(C)cccc4C)c3)[n+]2[O-])c1` [Compound 181, 2-(2′,6′-dimethyl-5-(methylamino)-[1,1′-biphenyl]-3-yl)-5-methyl-4-((3-(methylcarbamoyl)phenyl)carbamoyl)-1H-imidazole 3-oxide], the IC50 on human ACSS1 protein was greater than 30 nM; in experiment [1], less than 20 nM; at human ACSS2 protein, less than 1 nM.

For the compound `CCC(F)(F)c1cccc(NC(=O)c2c(C)[nH]c(-c3ccc(C#N)c(-c4c(C)cccc4C)c3)[n+]2[O-])c1` [Compound 114, 2-(6-cyano-2′,6′-dimethyl-[1,1′-biphenyl]-3-yl)-4-((3-(1,1-difluoropropyl)phenyl)carbamoyl)-5-methyl-1H-imidazole 3-oxide], the IC50 was greater than 30 nM on human ACSS1 protein, less than 20 nM in experiment [1] and less than 1 nM on human ACSS2 protein.

`COc1ccc(-c2[nH]c(C)c(C(=O)Nc3cccc(S(=O)(=O)N(C)C)c3)[n+]2[O-])cc1-c1c(C)cccc1C` [Compound 179, 4-((3-(N,N-dimethylsulfamoyl)phenyl)carbamoyl)-2-(6-methoxy-2′,6′-dimethyl-[1,1′-biphenyl]-3-yl)-5-methyl-1H-imidazole 3-oxide]: the “ACSS1 Biochemical IC50 (nM)” value on human ACSS1 protein was “Inactive”. The results for the concentration for half-maximal inhibition (IC50) (in experiment [1]; at human ACSS2 protein) were greater than 50 nM and 1 to 30 nM, respectively.

As to `COc1cc(-c2c(C)cccc2C)cc(-c2[nH]c(C)c(C(=O)Nc3cccc(C(F)(F)C4CC4)c3)[n+]2[O-])c1` [Compound 131, 4-((3-(cyclopropyldifluoromethyl)phenyl)carbamoyl)-2-(5-methoxy-2′,6′-dimethyl-[1,1′-biphenyl]-3-yl)-5-methyl-1H-imidazole 3-oxide], the “ACSS1 Biochemical IC50 (nM)” value on human ACSS1 protein is reported as “Inactive”. Also, the IC50 was 20 to 50 nM in experiment [1] and less than 1 nM at human ACSS2 protein.

As to `Cc1cccc(C)c1-c1cc(-c2[nH]c(C)c(C(=O)Nc3cccc(C(F)(F)C4CC4)c3)[n+]2[O-])ccc1Cl` [Compound 197, 2-(6-chloro-2′,6′-dimethyl-[1,1′-biphenyl]-3-yl)-4-((3-(cyclopropyldifluoromethyl)phenyl)carbamoyl)-5-methyl-1H-imidazole 3-oxide], at human ACSS1 protein, the “ACSS1 Biochemical IC50 (nM)” value is reported as “Inactive”. The concentration for half-maximal inhibition (IC50) in experiment [1] was greater than 50 nM; at human ACSS2 protein, less than 1 nM.

Regarding `CCC(F)(F)c1cccc(NC(=O)c2c(C)[nH]c(-c3ccc(OC)c(-c4c(C)cccc4C)c3)[n+]2[O-])c1` [Compound 102, 4-((3-(1,1-difluoropropyl)phenyl)carbamoyl)-2-(6-methoxy-2′,6′-dimethyl-[1,1′-biphenyl]-3-yl)-5-methyl-1H-imidazole 3-oxide], at human ACSS1 protein, the “ACSS1 Biochemical IC50 (nM)” value is “Inactive”. In addition, the IC50 is less than 20 nM in experiment [1] and less than 1 nM at human ACSS2 protein.

`CNS(=O)(=O)c1cccc(NC(=O)c2c(C)[nH]c(-c3ccc(OC)c(-c4c(C)cccc4C)c3)[n+]2[O-])c1` [Compound 187, 2-(6-methoxy-2′,6′-dimethyl-[1,1′-biphenyl]-3-yl)-5-methyl-4-((3-(N-methylsulfamoyl)phenyl)carbamoyl)-1H-imidazole 3-oxide]: the “ACSS1 Biochemical IC50 (nM)” value at human ACSS1 protein is listed as “Inactive”. Moreover, the IC50 in experiment [1] was 20 to 50 nM; at human ACSS2 protein, less than 1 nM.

Regarding `CCC(F)(F)c1cccc(NC(=O)c2c(C)[nH]c(-c3ccc(OC)c(-c4c(C)cccc4C)n3)[n+]2[O-])c1` [Compound 149, 4-((3-(1,1-difluoropropyl)phenyl)carbamoyl)-2-(6-(2,6-dimethylphenyl)-5-methoxypyridin-2-yl)-5-methyl-1H-imidazole 3-oxide], the “ACSS1 Biochemical IC50 (nM)” value at human ACSS1 protein is “Inactive”. The IC50 in experiment [1] was less than 20 nM; at human ACSS2 protein, less than 1 nM.

As to `COc1cc(Cl)c(-c2[nH]c(C)c(C(=O)Nc3cccc(C(F)(F)C4CC4)c3)[n+]2[O-])cc1-c1c(C)cccc1C` [Compound 198, 2-(4-chloro-6-methoxy-2′,6′-dimethyl-[1,1′-biphenyl]-3-yl)-4-((3-(cyclopropyldifluoromethyl)phenyl)carbamoyl)-5-methyl-1H-imidazole 3-oxide], the “ACSS1 Biochemical IC50 (nM)” value at human ACSS1 protein is on record as “Inactive”. The IC50 is greater than 50 nM in experiment [1] and less than 1 nM on human ACSS2 protein.

Consider `COc1cc(F)c(-c2[nH]c(C)c(C(=O)Nc3cccc(C(F)(F)C4CC4)c3)[n+]2[O-])cc1-c1c(C)cccc1C` [Compound 137], for which, on human ACSS1 protein, the “ACSS1 Biochemical IC50 (nM)” value is reported as “Inactive”. The IC50 in experiment [1] is greater than 50 nM; at human ACSS2 protein, less than 1 nM.

With `CCC(F)(F)c1cccc(NC(=O)c2c(C)[nH]c(-c3ccc(OC(F)F)c(-c4c(C)cccc4C)c3)[n+]2[O-])c1` [Compound 103, 2-(6-(difluoromethoxy)-2′,6′-dimethyl-[1,1′-biphenyl]-3-yl)-4-((3-(1,1-difluoropropyl)phenyl)carbamoyl)-5-methyl-1H-imidazole 3-oxide], the “ACSS1 Biochemical IC50 (nM)” value on human ACSS1 protein is “Inactive”. The IC50 was 20 to 50 nM in experiment [1] and less than 1 nM at human ACSS2 protein.

For `Cc1cccc(C)c1-c1cc(OCCN2CCCC2)cc(-c2[nH]c(C)c(C(=O)Nc3cccc(C(F)(F)C4CC4)c3)[n+]2[O-])c1` [Compound 183, 4-((3-(cyclopropyldifluoromethyl)phenyl)carbamoyl)-2-(2′,6′-dimethyl-5-(2-(pyrrolidin-1-yl)ethoxy)-[1,1′-biphenyl]-3-yl)-5-methyl-1H-imidazole 3-oxide], the “ACSS1 Biochemical IC50 (nM)” value at human ACSS1 protein was “Inactive”. In addition, the IC50 is greater than 50 nM in experiment [1] and less than 1 nM at human ACSS2 protein.

Regarding `CC(=O)c1cc(-c2c(C)cccc2C)cc(-c2[nH]c(C)c(C(=O)Nc3cccc(C(F)(F)C4CC4)c3)[n+]2[O-])c1` [Compound 142, 2-(5-acetyl-2′,6′-dimethyl-[1,1′-biphenyl]-3-yl)-4-((3-(cyclopropyldifluoromethyl)phenyl)carbamoyl)-5-methyl-1H-imidazole 3-oxide], the “ACSS1 Biochemical IC50 (nM)” value at human ACSS1 protein is recorded as “Inactive”. In addition, the IC50 in experiment [1] was greater than 50 nM; on human ACSS2 protein it was less than 1 nM.

`Cc1[nH]c(-c2ccc(OCCCN3CCCC3)cc2)[n+]([O-])c1C(=O)Nc1cccc(C(F)(F)C2CC2)c1` [Compound 174, 4-((3-(cyclopropyldifluoromethyl)phenyl)carbamoyl)-5-methyl-2-(4-(3-(pyrrolidin-1-yl)propoxy)phenyl)-1H-imidazole 3-oxide]: the “ACSS1 Biochemical IC50 (nM)” value at human ACSS1 protein was “Inactive”. The IC50 in experiment [1] is greater than 50 nM; on human ACSS2 protein it was 1 to 30 nM.

In the case of `CCC(F)(F)c1cccc(NC(=O)c2c(C)[nH]c(-c3cccc(-c4c(C)cnnc4C)c3)[n+]2[O-])c1` [Compound 116, 4-((3-(1,1-difluoropropyl)phenyl)carbamoyl)-2-(3-(3,5-dimethylpyridazin-4-yl)phenyl)-5-methyl-1H-imidazole 3-oxide], at human ACSS1 protein, the “ACSS1 Biochemical IC50 (nM)” value was “Inactive”. For the same compound, the IC50 in experiment [1] was less than 20 nM; on human ACSS2 protein, less than 1 nM.

Turning to `COc1ccc(-c2[nH]c(C)c(C(=O)Nc3cccc(C(C)(F)F)c3)[n+]2[O-])cc1-c1c(C)cccc1C` [Compound 120, 4-((3-(1,1-difluoroethyl)phenyl)carbamoyl)-2-(6-methoxy-2′,6′-dimethyl-[1,1′-biphenyl]-3-yl)-5-methyl-1H-imidazole 3-oxide], the “ACSS1 Biochemical IC50 (nM)” value at human ACSS1 protein is recorded as “Inactive”. In addition, the IC50 is less than 20 nM in experiment [1] and less than 1 nM at human ACSS2 protein.
